Experimental data published in ChEMBL document CHEMBL3044691, “The stability and degradation of a new biological pesticide, pyoluteorin” (Pest Manag Sci, 2010).

Experiments:
Assay type in all cases: physicochemical
[1] = Half life in water solution at 502.5 mg/l initial concentration under dark condition
[2] = Half life in phosphate buffer at pH 5.8 at room temperature under sunlight
[3] = Half life in water solution at 54 degC under dark condition
[4] = Half life in phosphate buffer at pH 7.4 under dark condition
[5] = Half life in phosphate buffer at pH 6.2 at room temperature under sunlight
[6] = Half life in phosphate buffer at pH 6.6 at room temperature under sunlight
[7] = Half life in water solution at 375 mg/l initial concentration under dark condition
[8] = Half life in phosphate buffer at pH 7 at room temperature under sunlight
[9] = Half life under sunlight at room temperature
[10] = Half life in water solution at 70 degC under dark condition
[11] = Half life in water solution at 28 degC under dark condition
[12] = Half life under high-pressure mercury lamp light at room temperature
[13] = Half life in water solution at 626.5 mg/l initial concentration under dark condition
[14] = Half life in phosphate buffer at pH 6.6 under dark condition
[15] = Half life under incandescent lamp light at room temperature
[16] = Half life in phosphate buffer at pH 6.2 under dark condition
[17] = Half life in water solution at 121.5 mg/l initial concentration under dark condition
[18] = Half life in water solution at 37 degC under dark condition
[19] = Half life in water solution at 248.5 mg/l initial concentration under dark condition
[20] = Half life in phosphate buffer at pH 7 under dark condition
[21] = Half life in phosphate buffer at pH 7.8 at room temperature under sunlight
[22] = Half life under dark condition at room temperature
[23] = Half life in phosphate buffer at pH 5.8 under dark condition
[24] = Half life in phosphate buffer at pH 7.4 at room temperature under sunlight
[25] = Half life in phosphate buffer at pH 7.8 under dark condition
[26] = Half life under fluorescent lamp light at room temperature

## O=C(c1cc(Cl)c(Cl)[nH]1)c1c(O)cccc1O [PYOLUTEORIN]
[1]
  half-life at 502.5 mg/l: 44.4 days
[2]
  half-life: 1.77 days
[3]
  half-life: 22 days
[4]
  half-life: 32.8 days
[5]
  half-life: 1.29 days
[6]
  half-life: 0.92 days
[7]
  half-life at 375 mg/l: 37.7 days
[8]
  half-life: 0.69 days
[9]
  half-life: 3.5 days
[10]
  half-life: 18.8 days
[11]
  half-life: 30 days
[12]
  half-life: 3.1 days
[13]
  half-life at 626.5 mg/l: 51.7 days
[14]
  half-life: 50.2 days
[15]
  half-life: 23.5 days
[16]
  half-life: 42 days
[17]
  half-life at 121.5 mg/l: 26.5 days
[18]
  half-life: 26.5 days
[19]
  half-life at 248.5 mg/l: 31.1 days
[20]
  half-life: 54.1 days
[21]
  half-life: 0.42 days
[22]
  half-life: 24.9 days
[23]
  half-life: 34.8 days
[24]
  half-life: 0.58 days
[25]
  half-life: 23.9 days
[26]
  half-life: 23.2 days
